Experimental data: PMC7955127, “Preclinical small molecule WEHI-7326 overcomes drug resistance and elicits response in patient-derived xenograft models of human treatment-refractory tumors” (Cell Death & Disease, 2021)

Assay: Acute toxicity study, single intravenous dose (non-GLP)
Assay type: in vivo, Sprague-Dawley rats
Conditions: for PT / Phosphate / Potassium / Protein (Total) / RBC / Retc. / Sodium / Triglycerides / Urea / WBC / Multifocal red petechiae on all lung lobes (incidence at necropsy) / Smaller right teste (incidence at necropsy) / Testes noted to have a soft consistency (incidence at necropsy) / White streaks though one or both testes (incidence at necropsy) / ALP / ALT / APTT / AST / Albumin / Albumin/Globulin / Bilirubin (Total) / Calcium / Chloride / Cholesterol / Creatinine / Globulin / Glucose / HCT / HGB / MCH / MCHC / MCV / PLT: day 15; for PT / Phosphate / Potassium / Protein (Total) / RBC / Retc. / Sodium / Triglycerides / Urea / WBC / ALP / ALT / APTT / AST / Albumin / Albumin/Globulin / Bilirubin (Total) / Calcium / Chloride / Cholesterol / Creatinine / Globulin / Glucose / HCT / HGB / MCH / MCHC / MCV / PLT: mean ± SD
Protocol: This acute toxicity study included a satellite group for toxicokinetic assessment. The toxicity study was comprised of 12 male and 12 female rats, which were allocated into four groups of three males and three females. The toxicity of the test substance, WEHI-7326 dihydrochloride (referred to as WEHI-7326 from here), was tested at three dose concentrations of 5 mg/kg, 15 mg/kg and 30 mg/kg administered as a single dose via intravenous tail vein injection. The vehicle control, D-(+)-Glucose, was formulated at 5% w/v and administered per the above regime. On Study Day 15, all animals were terminated with blood collected for biochemistry, haematology and coagulation analysis before undergoing gross necropsy by a US board certified veterinary pathologist. The toxicokinetic satellite group comprised of 30 male rats which were allocated into four groups of three males in the vehicle control group and nine males in each of the three treatment groups. All treatment group animals were then allocated into three subgroups (A, B and C) and bled pre-dose, then 2min, 10min, 0.5h, 2h, 6h, 12h and 24h post-dose. All vehicle control group animals weren’t allocated to a specific subgroup but were bled at 10min and 12h post-dose. All TK animals were then terminated after the final blood collection. Dosing was suspended on Study Day 1 for both the Toxicity and Toxicokinetic Study animals following adverse reactions which lead to the early termination of two animals (one male treated with mid-dose WEHI-7326 from the Toxicity Study and one male treated with high-dose WEHI-7326 from the Toxicokinetic Study) approximately 5-10 minutes post-treatment. After consultation with the Sponsor, the following changes were made to the Study Design:
At the revised high dose of 20mg/kg, all male rats had to be terminated prematurely also due to reaching their body weight loss endpoint of >10% loss. […] Significant findings in clinical pathology outcomes were considered incidental and unrelated to test article treatment. The majority of macroscopic findings at necropsy were also considered to be incidental, however the findings of white streaks through the testes of male animals treated with WEHI-7326 may be related to treatment. Body weights were measured once prior to dose administration, then daily for the duration of the study and at termination. Clinical observations were performed on a daily basis.
The study followed test guideline OECD No. 420 (2001) “Acute Oral Toxicity - Fixed Dose Procedure” with the exception that the route of administration was intravenous (i.v.).

[1] = female rats, 20 mg/kg single i.v.
[2] = male rats, 15 mg/kg single i.v.
[3] = male rats, 20 mg/kg single i.v.

COc1ccc(CNc2nc(NCc3ccc(CN)cc3)nc(NN3CC(=O)NC3=O)n2)cc1 [WEHI-7326]
PT [1]: 21.8 ± 0.8 s | Phosphate [1]: 1.85 ± 0.15 mM | Potassium [1]: 4.72 ± 0.20 mM | Protein (Total) [1]: 64.3 ± 1.2 g/L | RBC [1]: 7.27 ± 0.15 10^12/L | Retc. [1]: 4.75 ± 1.82% | Sodium [1]: 139 ± 1 mM | Triglycerides [1]: 0.96 ± 0.50 mM | Urea [1]: 6.37 ± 0.39 mM | WBC [1]: 7.85 ± 1.07 10^9/L | Body weight loss >10% (termination required) (incidence) (male rats, 5 mg/kg single i.v.): 0/3 | Discharge from nose on study day 2 (incidence) (male rats, 5 mg/kg single i.v.): 0/3 | Hunched posture with half shut eyes on Study Day 3 (incidence) (male rats, 5 mg/kg single i.v.): 0/3 | Labored breathing, severely affected gait and lack of response to stimuli post-dose (termination required) (incidence) (male rats, 5 mg/kg single i.v.): 0/3 | Mild impairment of gait and lack of response to stimuli postdose, resolved 2 hours post treatment (incidence) (male rats, 5 mg/kg single i.v.): 0/3 | No remarkable observations (incidence) (male rats, 5 mg/kg single i.v.): 3/3 | Red stained right eye on study day 2 and 3 (incidence) (male rats, 5 mg/kg single i.v.): 0/3 | Multifocal red petechiae on all lung lobes (incidence at necropsy) (male rats, 5 mg/kg single i.v.): 0/3 | Smaller right teste (incidence at necropsy) (male rats, 5 mg/kg single i.v.): 1/3 | Testes noted to have a soft consistency (incidence at necropsy) (male rats, 5 mg/kg single i.v.): 0/3 | White streaks though one or both testes (incidence at necropsy) (male rats, 5 mg/kg single i.v.): 3/3 | ALP (male rats, 5 mg/kg single i.v.): 528 ± 112 U/L | ALT (male rats, 5 mg/kg single i.v.): 66 ± 17 U/L | APTT (male rats, 5 mg/kg single i.v.): 16.8 ± 1.3 s | AST (male rats, 5 mg/kg single i.v.): 114 ± 16 U/L | Albumin (male rats, 5 mg/kg single i.v.): 36.6 ± 4.1 g/L | Albumin/Globulin (male rats, 5 mg/kg single i.v.): 1.4 ± 0.2 Ratio | Bilirubin (Total) (male rats, 5 mg/kg single i.v.): 0.4 ± 0.1 µM | Calcium (male rats, 5 mg/kg single i.v.): 2.67 ± 0.12 mM | Chloride (male rats, 5 mg/kg single i.v.): 102.9 ± 5.3 mM | Cholesterol (male rats, 5 mg/kg single i.v.): 1.81 ± 0.18 mM | Creatinine (male rats, 5 mg/kg single i.v.): 25 ± 5 µM | Globulin (male rats, 5 mg/kg single i.v.): 25.3 ± 1.6 g/L | Glucose (male rats, 5 mg/kg single i.v.): 7.70 ± 0.82 mM | HCT (male rats, 5 mg/kg single i.v.): 0.52 ± 0.01 L/L | HGB (male rats, 5 mg/kg single i.v.): 151.7 ± 3.1 g/L | MCH (male rats, 5 mg/kg single i.v.): 19.70 ± 0.85 pg | MCHC (male rats, 5 mg/kg single i.v.): 294.0 ± 5.0 g/L | MCV (male rats, 5 mg/kg single i.v.): 67.2 ± 3.5 fL | PLT (male rats, 5 mg/kg single i.v.): 1025.0 ± 167.5 10^9/L | PT (male rats, 5 mg/kg single i.v.): 19.5 ± 0.3 s | Phosphate (male rats, 5 mg/kg single i.v.): 2.07 ± 0.24 mM | Potassium (male rats, 5 mg/kg single i.v.): 5.23 ± 0.33 mM | Protein (Total) (male rats, 5 mg/kg single i.v.): 61.9 ± 5.8 g/L | RBC (male rats, 5 mg/kg single i.v.): 7.71 ± 0.45 10^12/L | Retc. (male rats, 5 mg/kg single i.v.): 4.57 ± 1.00% | Sodium (male rats, 5 mg/kg single i.v.): 143 ± 10 mM | Triglycerides (male rats, 5 mg/kg single i.v.): 1.65 ± 0.18 mM | Urea (male rats, 5 mg/kg single i.v.): 6.11 ± 0.96 mM | WBC (male rats, 5 mg/kg single i.v.): 14.83 ± 1.08 10^9/L | Body weight loss >10% (termination required) (incidence) [2]: 2/4 | Discharge from nose on study day 2 (incidence) [2]: 0/4 | Hunched posture with half shut eyes on Study Day 3 (incidence) [2]: 0/4 | Labored breathing, severely affected gait and lack of response to stimuli post-dose (termination required) (incidence) [2]: 1/4 | Mild impairment of gait and lack of response to stimuli postdose, resolved 2 hours post treatment (incidence) [2]: 0/4 | No remarkable observations (incidence) [2]: 1/4 | Red stained right eye on study day 2 and 3 (incidence) [2]: 1/4 | Multifocal red petechiae on all lung lobes (incidence at necropsy) [2]: 0/1 | Smaller right teste (incidence at necropsy) [2]: 0/1 | Testes noted to have a soft consistency (incidence at necropsy) [2]: 1/1 | White streaks though one or both testes (incidence at necropsy) [2]: 1/1 | ALP [2]: 306 ± 0 U/L | ALT [2]: 61 ± 0 U/L | APTT [2]: 20.2 ± 0.0 s | AST [2]: 108 ± 0 U/L | Albumin [2]: 32.3 ± 0 g/L | Albumin/Globulin [2]: 1.3 ± 0 Ratio | Bilirubin (Total) [2]: 0.9 ± 0 µM | Calcium [2]: 2.50 ± 0 mM | Chloride [2]: 100.4 ± 0 mM | Cholesterol [2]: 1.65 ± 0 mM | Creatinine [2]: 23 ± 0 µM | Globulin [2]: 25.8 ± 0 g/L | Glucose [2]: 7.13 ± 0 mM | HCT [2]: 0.46 ± 0.00 L/L | HGB [2]: 138.0 ± 0.0 g/L | MCH [2]: 18.00 ± 0.00 pg | MCHC [2]: 297.0 ± 0.0 g/L | MCV [2]: 60.40 ± 0.0 fL | PLT [2]: 1075 ± 0.0 10^9/L | PT [2]: 18.4 ± 0.0 s | Phosphate [2]: 2.07 ± 0 mM | Potassium [2]: 4.78 ± 0 mM | Protein (Total) [2]: 58.1 ± 0 g/L | RBC [2]: 7.68 ± 0.00 10^12/L | Retc. [2]: 2.70 ± 0.00% | Sodium [2]: 138 ± 0 mM | Triglycerides [2]: 0.97 ± 0 mM | Urea [2]: 4.02 ± 0 mM | WBC [2]: 10.89 ± 0.00 10^9/L | Body weight loss >10% (termination required) (incidence) [3]: 3/3 | Discharge from nose on study day 2 (incidence) [3]: 3/3 | Hunched posture with half shut eyes on Study Day 3 (incidence) [3]: 3/3 | Labored breathing, severely affected gait and lack of response to stimuli post-dose (termination required) (incidence) [3]: 0/3 | Mild impairment of gait and lack of response to stimuli postdose, resolved 2 hours post treatment (incidence) [3]: 3/3 | No remarkable observations (incidence) [3]: 0/3 | Red stained right eye on study day 2 and 3 (incidence) [3]: 0/3 | Multifocal red petechiae on all lung lobes (incidence at necropsy) [3]: 0/0 | Smaller right teste (incidence at necropsy) [3]: 0/0 | Testes noted to have a soft consistency (incidence at necropsy) [3]: 0/0 | White streaks though one or both testes (incidence at necropsy) [3]: 0/0
